Biological target: DPIV (Homo sapiens, UniProt P27487)
Assay: DPIV Inhibition Assay
Type: biochemical
Settings: pH 8; substrate L-alanyl-L-proline-para-nitroanilide; inhibitor stood in pH 8 buffer overnight; absorbance 410 nm
Description: The inhibitor solution was prepared by dissolving 3-5 mg of inhibitor in pH 2 solution (0.01 N HCl), such that the concentration of the solution was equal to 1 mg/10 μL. A 10 μL sample of this solution was then added to 990 μL of pH 8 buffer (0.1 M HEPES, 0.14 M NaCl), and the solution was allowed to stand at room temperature overnight.
The enzyme solution was prepared by diluting 20 μL of DPIV (concentration 2.5 μM) into 40 mL of pH 8 buffer.
The substrate solution was prepared by dissolving 2.0 mg of L-alanyl-L-proline-para-nitroanilide into 20 mL of pH 8 buffer.
250 μL of enzyme solution was added to well #B1 to #H1, #A2 to #H2, and #A3 to #H3 of a 96 well plate, while well #Al received 250 μL of pH 8 buffer instead of enzyme solution. 90 μL of pH 8 buffer was then added to column 5 (from well #A5 to #H5).
A 1:10 dilution was then performed by adding inhibitor solution to #A5 and the solution was mixed well before transferring 10 μL of this solution from #A5 to #B5. The solution in #B5 was then mixed well before transferring 10 μL of this solution from #B5 to #C5. The solution in #C5 was then mixed well before transferring 10 μL of this solution from #C5 to #D5. The solution in #D5 was then mixed well before transferring 10 μL of this solution from #D5 to #E5. The solution in #E5 was then mixed well before transferring 10 μL of this solution from #E5 to #F5. The solution in #F5 was then mixed well before transferring 10 μL of this solution from #F5 to #G5. The solution in #G5 was then mixed well before transferring 10 μL of this solution from #G5 to #H5.
A 30 μL aliquot was then transferred from #H5 to #H3 for row H, and the contents were mixed well. The analogous procedure was repeated for rows G, F, E, D, C, B, and A sequentially. The plate was then shaken on a plate shaker for 5 minutes before allowing the plate to incubate at room temperature for an additional 5 minutes.
Once the plate had been allowed to incubate, 30 μL of substrate was added to each well except well #A1. The plate was then placed on a plate shaker for 5 minutes before allowing the plate to incubate at room temperature for 25 minutes. The absorbance was then immediately read at a wavelength of 410 nm.

Chain of DPIV (P27487 whole entry): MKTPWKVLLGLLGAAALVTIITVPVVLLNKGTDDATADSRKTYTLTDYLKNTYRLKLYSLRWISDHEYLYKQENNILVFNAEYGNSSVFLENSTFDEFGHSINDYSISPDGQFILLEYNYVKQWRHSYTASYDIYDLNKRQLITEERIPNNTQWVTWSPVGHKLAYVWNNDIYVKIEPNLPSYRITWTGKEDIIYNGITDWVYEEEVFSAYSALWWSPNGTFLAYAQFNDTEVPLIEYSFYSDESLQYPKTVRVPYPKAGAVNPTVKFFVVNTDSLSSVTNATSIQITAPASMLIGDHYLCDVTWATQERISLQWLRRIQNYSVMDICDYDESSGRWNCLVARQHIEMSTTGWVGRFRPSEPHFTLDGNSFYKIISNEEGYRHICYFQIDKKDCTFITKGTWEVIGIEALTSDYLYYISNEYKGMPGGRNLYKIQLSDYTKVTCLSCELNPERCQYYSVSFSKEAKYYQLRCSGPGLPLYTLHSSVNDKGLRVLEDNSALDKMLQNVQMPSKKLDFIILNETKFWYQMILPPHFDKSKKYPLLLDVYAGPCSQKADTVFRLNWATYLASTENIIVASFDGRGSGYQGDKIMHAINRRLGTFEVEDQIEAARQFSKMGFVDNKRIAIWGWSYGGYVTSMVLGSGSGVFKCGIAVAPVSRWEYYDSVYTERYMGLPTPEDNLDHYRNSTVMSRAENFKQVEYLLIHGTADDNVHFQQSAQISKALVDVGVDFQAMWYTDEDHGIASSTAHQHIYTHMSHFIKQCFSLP

| Structure (SMILES) | IC50 |
| --- | --- |
| C[C@@H](B(O)O)N1CC[C@](N)(Cc2cccc3ccccc23)C1=O [P] | 2.1 nM |
| C[C@H](C#N)N1CCC(N)C1=O (stereo partly drawn) [A] | 11000 nM |
| CC[C@@H](B(O)O)N1CC[C@](N)(Cc2ccccc2)C1=O [N] | 3 nM |
| CN[C@]1(Cc2ccccc2)CCN([C@@H](C)B(O)O)C1=O [O] | 630 nM |
| C[C@H](B(O)O)N1CCC(N)C1=O (stereo partly drawn) [C] | 340 nM |
| CC(B(O)O)N1CCC(N)C1=O (stereo not drawn) [D] | 34 nM |
| C[C@@H](B(O)O)N1CCC(N)C1=O (stereo partly drawn) [B] | 40 nM |

More lines, now with the values ahead:

| IC50 | Structure (SMILES) |
| --- | --- |
| 25 nM | CC[C@H](B(O)O)N1CC[C@](N)(CC)C1=O [Compound I] |
| 2.6 nM | C[C@@H](B(O)O)N1CC[C@](N)(Cc2ccccc2)C1=O [M] |
| 9.9 nM | C[C@@H](B(O)O)N1CC[C@]2(CCCN2)C1=O [Q] |
| 69000 nM | C[C@@H](B(O)O)N1CC[C@](C)(N)C1=O [F] |
| 6.7 nM | C[C@@H](B(O)O)N1CC[C@@](C)(N)C1=O [G] |
| 1.9 nM | CCCC[C@@]1(N)CCN([C@@H](C)B(O)O)C1=O [J] |
| 36 nM | C[C@@H](B(O)O)N1CC[C@](N)(CC(=O)O)C1=O [K] |
| 23 nM | CC(B(O)O)N1CCC(C)(N)C1=O (stereo not drawn) [E] |

Source: US20090209491A1, “Lactams as conformationally constrained peptidomimetic inhibitors” (Trustees of Tufts College, priority 2004, published 2009)
